Each block holds one molecule with its values, some of them ahead of it.
Legend:
[1] = system: Candida albicans; test: Synergism of menthol, menthyl acetate or their ratios with antifungal drugs (MIC, FIC, fold enhancement); assay type: cell-based, Candida albicans (MTCC1637 equivalent to ATCC 18804); conditions: for synergism of the individual compound with Clotrimazole, Amphotericin B and Nystatin: individual compound at a concentration of 0.25 μg/ml
Experimental: In the present invention Candida albicans (MTCC1637 equivalent to ATCC 18804)=Interdigital mycoses, Neotype strain, production of citric acid) is used for all the experimentations (MTCC=Microbial type culture collection, Institute of Microbial Technology, Chandigarh, India). […]
The fractional inhibitory concentrations (FIC) are calculated by dividing the MIC of the combination with the MIC of antifungal compound alone. The enhancement is calculated by dividing the MIC of the antifungal compound with the MIC of the combination. […] Similarly, the maximum enhancement of Amphotericin is detected for the same set of ratios (2114, 2115, 2116). The enhancement of Nystatin is detected in the combinations with ratios 2112 and 2114. (TABLE 3)

[2] = system: Candida albicans; test: Minimum inhibitory concentration (MIC) in broth culture of Candida albicans; assay type: cell-based, Candida albicans (MTCC1637 equivalent to ATCC 18804); conditions: for activity of the components at the concentrations used: proportional concentrations within 0.25 μg/ml
Experimental: In the present invention Candida albicans (MTCC1637 equivalent to ATCC 18804)=Interdigital mycoses, Neotype strain, production of citric acid) is used for all the experimentations (MTCC=Microbial type culture collection, Institute of Microbial Technology, Chandigarh, India).
The minimum inhibitory concentrations (MIC) of the compound menthyl acetate and menthol is determined in broth culture of Candida albicans and is estimated to be […] and 500 μg/ml respectively.
A combination of the two compounds menthol and menthyl acetate in 1:1 ratio is evaluated for synergistic action if any. […] Therefore this combination is further tested for activity against Candida in combination with known antifungal drugs.
Following ratios are prepared by dissolving menthol in menthyl acetate. The ratios are tested for minimum inhibitory concentration in broth cultures of Candida albicans. As mentioned in the TABLE 1, the MIC of ratios are several folds lower than the additive MIC of individual compounds. Identification numbers of the ratios are the numbers given to identify the combination and mean nothing more than this. […] All these combinations are found to be synergistic for antifungal activities.

[3] = antifungal drug alone or with menthol/menthyl acetate combination at 0.25 μg/ml

MIC ([1]; Amphotericin B (A) + Menthyl acetate (μg/ml)): 2.5 µg/mL | MIC ([1]; Candida albicans, Amphotericin B (A) + Menthol (μg/ml), read-out: MIC): 2.5 µg/mL | MIC [1, 3]: 2.5 µg/mL
SMILES: C[C@@H]1[C@H](O)[C@@H](C)/C=C/C=C/C=C/C=C/C=C/C=C/C=C/[C@H](O[C@@H]2O[C@H](C)[C@@H](O)[C@H](N)[C@@H]2O)C[C@@H]2O[C@](O)(C[C@@H](O)C[C@@H](O)[C@H](O)CC[C@@H](O)C[C@@H](O)CC(=O)O[C@H]1C)C[C@H](O)[C@H]2C(=O)O [Amphotericin B (A), Amphotericin B]

MIC ([1]; Candida albicans, Clotrimazole (C) + Menthyl acetate (μg/ml), read-out: MIC): 1.25 µg/mL | MIC ([1]; Clotrimazole (C) + Menthol (μg/ml)): 1.25 μ/ml | MIC [1, 3]: 1.25 µg/mL
SMILES: Clc1ccccc1C(c1ccccc1)(c1ccccc1)n1ccnc1 [Clotrimazole (C), Clotrimazole]

minimum inhibitory concentrations (MIC) ([2]; broth culture of Candida albicans, printed as a dilution fraction): 1/400
SMILES: CC(=O)OC1CC(C)CCC1C(C)C (stereo not drawn) [menthyl acetate]
activity of the components at the concentrations used [2]: do not have any activity | synergism of the individual compound with Clotrimazole, Amphotericin B and Nystatin [1]: neither menthol nor menthyl acetate could lower the MIC

More lines, now with the values behind:

SMILES: C[C@@H]1[C@H](O)[C@@H](C)/C=C/C=C/CC/C=C/C=C/C=C/C=C/C(O[C@H]2O[C@H](C)[C@@H](O)[C@H](N)[C@@H]2O)CC2O[C@](O)(CC(O)C(O)CCC(O)CC(O)CC(O)CC(=O)O[C@H]1C)CC(O)C2C(=O)O (stereo partly drawn) [Nystatin (N), Nystatin]
MIC ([1]; Nystatin (N) + Menthol (μg/ml)): 5.0 µg/mL | MIC ([1]; Nystatin (N) + Menthyl acetate (μg/ml)): 5.0 µg/mL | MIC [1, 3]: 5.0 µg/mL

SMILES: CC1CCC(C(C)C)C(O)C1 (stereo not drawn) [menthol]
MIC ([2]; broth culture of Candida albicans, read-out: minimum inhibitory concentrations (MIC)): 500 µg/mL | activity of the components at the concentrations used [2]: do not have any activity | synergism of the individual compound with Clotrimazole, Amphotericin B and Nystatin [1]: neither menthol nor menthyl acetate could lower the MIC

Source: patent US20030158126A1, “Method of treatment for fungal infections with a synergistic formulation of antifungal agents” (priority 2002, published 2003)
